# Test results as given in EP1561465A2, “Methods of use of fluoroquinolone compounds against bacteria” (LG Life Sciences, Ltd., priority 1999, dated 2001).
# “And” between values parts separate entries of the source, which are not always exact repeats. Equal entries are not always repeated. Where two headings read alike, the source gives them in different places.
# Key:
# Assay type in all cases: cell-based
# Aeromonas spp. = experiment: MIC by agar dilution (NCCLS M7-A4), 288 enteropathogenic isolates, eight quinolones; details: Aeromonas spp. (n = 16)
# Staphylococcus aureus [1] = experiment: MIC by agar dilution (NCCLS), 411 isolates Buenos Aires 1998-99; details: for MIC90: Staphylococcus aureus
# Enterococcus faecalis = experiment: as above; details: Enterococcus faecalis (n = 48)
# Streptococcus pneumoniae = experiment: MIC by NCCLS reference broth microdilution, 450 respiratory tract pathogens; details: for MIC / MIC50 / MIC90: Streptococcus pneumoniae
# Streptococcus pyogenes = experiment: as above; details: for MIC / MIC50 / MIC90: Streptococcus pyogenes
# Staphylococcus aureus [2] = experiment: as above
# Moraxella catarrhalis = experiment: MIC by two-fold serial agar dilution, Sensitivity Disk agar-N (Kitasato isolates); details: Moraxella catarrhalis (22)
# P. aeruginosa = experiment: MIC by two-fold serial agar dilution, quinolone-resistant strains; details: Pseudomonas aeruginosa
# [3] = test system: Staphylococcus epidermidis; experiment: MIC by NCCLS broth microdilution, 1100 Japanese clinical isolates 1997-1998; details: for MIC50 / MIC90: Staphylococcus epidermidis
# Citrobacter freundii = experiment: as above
# Shigella spp. = experiment: as above; details: Shigella spp. (n=34)
# Providencia rettgeri = experiment: as above
# [4] = test system: Gram negative anaerobic pathogens and facultative anaerobic pathogens; experiment: MIC by agar dilution, Brucella HK agar with 5% laked sheep blood, anaerobic reference strains
# Proteus mirabilis = experiment: MIC by agar dilution (NCCLS), 322 nosocomial Gram negative isolates, Athens 1998; details: Proteus mirabilis; n = 57 isolates
# Enterobacter spp. = experiment: as above; details: n = 57 isolates
# Acinetobacter spp. = experiment: as above; details: n = 38 strains
# [5] = S. aureus, Methicillin resistant (n = 14)
# [6] = S. aureus, Methicillin susceptible (n = 66)
# [7] = Streptococcus pneumoniae (n = 100)
# [8] = erythromycin resistant M phenotype (n = 16)
# [9] = penicillin intermediate (n = 16)
# [10] = penicillin susceptible (n = 20)
# [11] = Streptococcus pyogenes (n = 100)
# [12] = erythromycin resistant C phenotype [MLSB] (n = 20)
# [13] = erythromycin resistant I phenotype [MLSB] (n = 20)
# [14] = erythromycin resistant M phenotype (n = 20)
# [15] = β-lactamase positive and erythromycin resistant (n = 10)
# [16] = Staphylococcus epidermidis oxacillin resistant (n=43)
# [17] = Staphylococcus epidermidis oxacillin susceptible (n=35)
compound,measurement,setting,value
"CO/N=C1\CN(c2nc3c(cc2F)c(=O)c(C(=O)O)cn3C2CC2)CC1CN (racemic) [Gemifloxacin, (R,S)-7-(3-aminomethyl-4-methoxyiminopyrrolidin-1-yl)-1-cyclopropyl-6-fluoro-4-oxo-1,4-dihydro-1,8-naphthyridine-3-carboxylic acid]",% Susceptible,Aeromonas spp.,100%
same,MIC50,Aeromonas spp.,≤ 0.015 µg/mL
same,MIC90,Aeromonas spp.,0.03 µg/mL
same,MIC Range,Aeromonas spp.,≤0.015 to 0.12 µg/mL
same,Resistance (%),Staphylococcus aureus [1]; [5],0%
same,Resistance (%),Staphylococcus aureus [1]; [6],0%
same,MIC Range,Staphylococcus aureus [1]; Staphylococcus aureus (n = 80),≤0.004 to 2 µg/mL
same,MIC90,Staphylococcus aureus [1]; [5],2 µg/mL
same,MIC90,Staphylococcus aureus [1]; [6],0.03 µg/mL
same,MIC90,Staphylococcus aureus [1]; Staphylococcus aureus (n = 80),1 µg/mL
same,MIC90,Enterococcus faecalis,2 µg/mL
same,MIC Range,Enterococcus faecalis,0.008 to 8 µg/mL
same,times more potent than all comparator agents,Streptococcus pneumoniae; S. pneumoniae,4-64 times
same,MIC,Streptococcus pneumoniae; [7],0.0075 to 0.03 µg/mL
same,MIC50,Streptococcus pneumoniae; [7],0.015 µg/mL
same,MIC90,Streptococcus pneumoniae; [7],0.03 µg/mL
same,MIC,Streptococcus pneumoniae; [8],0.015 to 0.05 µg/mL
same,MIC50,Streptococcus pneumoniae; [8],0.015 µg/mL
same,MIC90,Streptococcus pneumoniae; [8],0.03 µg/mL
same,MIC,Streptococcus pneumoniae; erythromycin resistant MLSB phenotype (n = 16),0.0075 to 0.03 µg/mL
same,MIC,Streptococcus pneumoniae; multi-drug resistant (n = 16),0.0075 to 0.03 µg/mL
same,MIC50,Streptococcus pneumoniae; multi-drug resistant (n = 16),0.015 µg/mL
same,MIC90,Streptococcus pneumoniae; multi-drug resistant (n = 16),0.03 µg/mL
same,MIC,Streptococcus pneumoniae; [9],0.0075 to 0.03 µg/mL
same,MIC50,Streptococcus pneumoniae; [9],0.015 µg/mL
same,MIC90,Streptococcus pneumoniae; [9],0.015 µg/mL
same,MIC,Streptococcus pneumoniae; penicillin resistant (n = 18),0.0075 to 0.06 µg/mL
same,MIC50,Streptococcus pneumoniae; penicillin resistant (n = 18),≤ 0.0075 µg/mL
same,MIC90,Streptococcus pneumoniae; penicillin resistant (n = 18),0.06 µg/mL
same,MIC,Streptococcus pneumoniae; [10],0.0075 to 0.03 µg/mL
same,MIC50,Streptococcus pneumoniae; [10],0.015 µg/mL
same,MIC90,Streptococcus pneumoniae; [10],0.03 µg/mL
same,activity higher than that of the other fluoroquinolones tested,Streptococcus pyogenes; S. pyogenes,2-32 fold
same,MIC,Streptococcus pyogenes; [11],0.00375 to 0.06 µg/mL
same,MIC50,Streptococcus pyogenes; [11],0.015 µg/mL
same,MIC90,Streptococcus pyogenes; [11],0.03 µg/mL
same,MIC,Streptococcus pyogenes; [12],0.00375 to 0.03 µg/mL
same,MIC50,Streptococcus pyogenes; [12],0.015 µg/mL
same,MIC90,Streptococcus pyogenes; [12],0.015 µg/mL
same,MIC,Streptococcus pyogenes; [13],0.00375 to 0.06 µg/mL
same,MIC50,Streptococcus pyogenes; [13],0.015 µg/mL
same,MIC90,Streptococcus pyogenes; [13],0.03 µg/mL
same,MIC,Streptococcus pyogenes; [14],0.00375 to 0.03 µg/mL
same,MIC50,Streptococcus pyogenes; [14],0.015 µg/mL
same,MIC90,Streptococcus pyogenes; [14],0.015 µg/mL
same,MIC,Streptococcus pyogenes; fully susceptible (n = 20),0.0075 to 0.03 µg/mL
same,MIC50,Streptococcus pyogenes; fully susceptible (n = 20),0.015 µg/mL
same,MIC90,Streptococcus pyogenes; fully susceptible (n = 20),0.03 µg/mL
same,MIC,Streptococcus pyogenes; multi-drug resistant (n = 20),0.0075 to 0.015 µg/mL
same,MIC50,Streptococcus pyogenes; multi-drug resistant (n = 20),0.015 µg/mL
same,MIC90,Streptococcus pyogenes; multi-drug resistant (n = 20),0.03 µg/mL
same,MIC,Staphylococcus aureus [2]; Staphylococcus aureus (n = 50),0.00375 to 0.12 µg/mL
same,MIC50,Staphylococcus aureus [2]; Staphylococcus aureus (n = 50),0.06 µg/mL
same,MIC90,Staphylococcus aureus [2]; Staphylococcus aureus (n = 50),0.12 µg/mL
same,MIC,Staphylococcus aureus [2]; β-lactamase negative (n = 20),0.06 to 0.12 µg/mL
same,MIC50,Staphylococcus aureus [2]; β-lactamase negative (n = 20),0.12 µg/mL
same,MIC90,Staphylococcus aureus [2]; β-lactamase negative (n = 20),0.12 µg/mL
same,MIC,Staphylococcus aureus [2]; β-lactamase positive (n = 20),0.00375 to 0.12 µg/mL
same,MIC50,Staphylococcus aureus [2]; β-lactamase positive (n = 20),0.12 µg/mL
same,MIC90,Staphylococcus aureus [2]; β-lactamase positive (n = 20),0.123 µg/mL
same,MIC,Staphylococcus aureus [2]; [15],0.06 to 0.12 µg/mL
same,MIC50,Staphylococcus aureus [2]; [15],0.06 µg/mL
same,MIC90,Staphylococcus aureus [2]; [15],0.06 µg/mL
same,MIC50,Moraxella catarrhalis,0.031 µg/mL
same,MIC90,Moraxella catarrhalis,0.031 µg/mL
same,MIC Range,Moraxella catarrhalis,0.016 to 0.031 µg/mL
same,MIC,P. aeruginosa,2 µg/mL
same,MIC Range,[3]; [16],0.032 to 4 µg/mL
same,MIC Range,[3]; [17],≤0.008 to 2 µg/mL
same,MIC50,[3]; [16],0.5 µg/mL
same,MIC90,[3]; [16],2 µg/mL
same,MIC50,[3]; [17],0.032 µg/mL
same,MIC90,[3]; [17],0.5 µg/mL
same,MIC50,Citrobacter freundii; Citrobacter freundii,0.125 µg/mL
same,MIC90,Citrobacter freundii; Citrobacter freundii (n=39),2 µg/mL
same,MIC Range,Citrobacter freundii; Citrobacter freundii (n=39),0.016 to 4 µg/mL
same,MIC50,Shigella spp.,≤ 0.008 µg/mL
same,MIC90,Shigella spp.,0.032 µg/mL
same,MIC Range,Shigella spp.,≤0.008 to 0.032 µg/mL
same,MIC50,Providencia rettgeri; Providencia rettgeri,0.125 µg/mL
same,MIC90,Providencia rettgeri; Providencia rettgeri (n=12),8 µg/mL
same,MIC Range,Providencia rettgeri; Providencia rettgeri (n=12),0.063 to 16 µg/mL
same,MIC,[4],1 µg/mL and 0.125 µg/mL
same,MIC,"[4]; Bacteroides eggerthii, ATCC27754, Bacteroides eggerthii ATCC27754, read-out: MIC",4 µg/mL
same,MIC,"[4]; Bacteroides fragilis, ATCC25285, Bacteroides fragilis ATCC25285, read-out: MIC",0.5 µg/mL
same,MIC,"[4]; Bacteroides fragilis, Bacteroides fragilis GA15562, read-out: MIC",0.25 µg/mL
same,MIC,"[4]; Bacteroides fragilis, Bacteroides fragilis GA-I0558, read-out: MIC",0.5 µg/mL
same,MIC,"[4]; Bacteroides fragilis, Bacteroides fragilis GA-I7955, read-out: MIC",2 µg/mL
same,MIC,"[4]; Bacteroides fragilis, Bacteroides fragilis GAI10150, read-out: MIC",0.5 µg/mL
same,MIC,"[4]; Bacteroides fragilis, Bacteroides fragilis GAI30079, read-out: MIC",8 µg/mL
same,MIC,"[4]; Bacteroides fragilis, Bacteroides fragilis GAI30144, read-out: MIC",2 µg/mL
same,MIC,"[4]; Bacteroides fragilis, NCTC10581, Bacteroides fragilis NCTC10581, read-out: MIC",0.5 µg/mL
same,MIC,"[4]; Bacteroides ovatus, ATCC8483, Bacteroides ovatus ATCC8483, read-out: MIC",1 µg/mL
same,MIC,"[4]; Bacteroides thetaiotaomicron, ATCC29741, Bacteroides thetaiotaomicron ATCC29741, read-out: MIC",2 µg/mL
same,MIC,"[4]; Bacteroides uniformis, ATCC8492, Bacteroides uniformis ATCC8492, read-out: MIC",1 µg/mL
same,MIC,"[4]; Campylobacter gracilis, JCM8538, Campylobacter gracilis JCM8538, read-out: MIC",≤ 0.03 µg/mL
same,MIC,"[4]; Campylobacter ureolyticus, NCTC10941, Bacteroides ureolyticus NCTC10941, read-out: MIC",≤ 0.03 µg/mL
same,MIC,"[4]; Capnocytophaga ochracea, Capnocytophaga ochracea GAI5586, read-out: MIC",≤ 0.03 µg/mL
same,MIC,"[4]; Desullomonas pigra DSM749, read-out: MIC",0.06 µg/mL
same,MIC,"[4]; Fusobacterium necrophorum, ATCC25286, Fusobacterium necrophorum ATCC25286, read-out: MIC",0.25 µg/mL
same,MIC,"[4]; Fusobacterium nucleatum, ATCC25586",0.125 µg/mL
same,MIC,"[4]; Fusobacterium varium, ATCC8501, Fusobacterium varium ATCC8501, read-out: MIC",0.5 µg/mL
same,MIC,"[4]; Hoylesella oralis, ATCC33269, Prevotella oralis ATCC33269, read-out: MIC",2 µg/mL
same,MIC,"[4]; Parabacteroides distasonis, ATCC8503, Bacteroides distasonis ATCC8503, read-out: MIC",0.25 µg/mL
same,MIC,"[4]; Phocaeicola vulgatus, ATCC8482, Bacteroides vulgatus ATCC8482, read-out: MIC",0.25 µg/mL
same,MIC,"[4]; Porphylomonas gingivalis ATCC33277, read-out: MIC",0.06 µg/mL
same,MIC,"[4]; Porphyromonas asaccharolytica, ATCC25260, Porphyromonas asaccharolytica ATCC25260, read-out: MIC",0.06 µg/mL
same,MIC,"[4]; Prevotella bivia, ATCC29303, Prevotella bivia ATCC29303, read-out: MIC",16 µg/mL
same,MIC,"[4]; Prevotella buccaeATCC33574, read-out: MIC",2 µg/mL
same,MIC,"[4]; Prevotella corporis, Prevotella corporis GAI91000, read-out: MIC",1 µg/mL
same,MIC,"[4]; Prevotella heparinolytica, ATCC35895",0.125 µg/mL
same,MIC,"[4]; Prevotella melaninogenica, Prevotella melaninogenica GAI5490, read-out: MIC",1 µg/mL
same,MIC,"[4]; Segatella oris, ATCC33573, Prevotella oris ATCC33573, read-out: MIC",0.5 µg/mL
same,MIC,"[4]; Sutterella wadsworthensis, ATCC51579, Sutterella wadsworthensis ATCC51579, read-out: MIC",2 µg/mL
same,MIC,"[4]; Veillonella dispar, ATCC17748, Veillonella dispar ATCC17748, read-out: MIC",≤ 0.03 µg/mL
same,MIC,"[4]; Veillonella parvula, ATCC10790, Veillonella parvula ATCC10790, read-out: MIC",0.06 µg/mL
same,MIC50,Proteus mirabilis,0.25 µg/mL
same,MIC90,Proteus mirabilis,16 µg/mL
same,MIC50,"Enterobacter spp.; Enterobacter, read-out: MIC50",0.06 µg/mL
same,MIC90,"Enterobacter spp.; Enterobacter, read-out: MIC90",16 µg/mL
same,MIC Range,Enterobacter spp.,≤0.03 to 64 µg/mL
same,MIC50,Acinetobacter spp.; Acinetobacter,2 µg/mL
same,MIC90,Acinetobacter spp.; Acinetobacter,32 µg/mL
same,MIC Range,Acinetobacter spp.,0.06 to 32 µg/mL
